Values after ≈ are worked out from the molar mass of the structure shown. Values joined by “and” are separate entries in the source; they are usually repeats but may differ in a detail not shown here. Identical values can stand only once.
Columns and labels:
HSV-1 = conditions: for mean % of reduction, herpes simplex virus: nontoxic dose of compound; for IC50: herpes simplex virus, plaque reduction
HAV HM175 = assay: Plaque reduction assay against HAV HM175; assay type: cell-based, hepatitis A virus HM 175; conditions: for IC50: hepatitis A virus HM 175, plaque reduction; for mean % of reduction, hepatitis A virus HM 175: nontoxic dose of compound
[1] = tested on: ED-43/SG-Feo (VYG) replicon of HCV genotype 4a; assay: Antiviral bioassay against ED-43/SG-Feo; assay type: cell-based; conditions: nontoxic dose of compound
FRHK-4 cell line = assay: Cytotoxicity test on FRHK-4 cell line; assay type: cell-based; conditions: hepatitis A virus HM 175 columns; host cells FRHK4
HAdV7 = assay: Plaque reduction assay against adenovirus 7; assay type: cell-based, human adenovirus type 7; conditions: nontoxic dose of compound
CBV4 = assay: Plaque reduction assay against coxsackievirus B4; assay type: cell-based; conditions: nontoxic dose of compound
Vero cell line = assay: Cytotoxicity test on Vero cell line; assay type: cell-based; conditions: herpes simplex virus table; host cells Vero

In the case of Nc1nc(NS(=O)(=O)c2ccccc2)ncc1-c1nc2ccccc2s1 [5a, N-(4-Amino-5-(Benzo[d]thiazol-2-yl)pyrimidin-2-yl)benzenesulfonamide], the “mean % of reduction, herpes simplex virus” value (HSV-1) is reported as 20 ± 0.9%, the IC50 (HAV HM175) is reported as 100 µg/mL (≈ 261 µM) and the “mean % of reduction, HCVcc genotype 4” value [1] is reported as 30 ± 0.8%. For the same molecule, the CC50 (FRHK-4 cell line) was 220 µg/mL (≈ 574 µM) and the “mean % of reduction, adenovirus type 7” value (HAdV7) was 20 ± 0.5%.
Cc1ccc(S(=O)(=O)Nc2ncc(-c3nc4ccccc4s3)c(N)n2)cc1 [5b, N-(4-Amino-5-(benzo[d]thiazol-2-yl)pyrimidin-2-yl)-4-methylbenzenesulfonamide] was tested, and the “mean % of reduction, herpes simplex virus” value (HSV-1) was 40 ± 1.4%, the “mean % of reduction, hepatitis A virus HM 175” value (HAV HM175) was 40 ± 1.0% and the “mean % of reduction, HCVcc genotype 4” value [1] was 20 ± 0.8%. For the same molecule, the “mean % of reduction, adenovirus type 7” value (HAdV7) was 20 ± 0.3%.
For Cc1ccc(C(=O)CNc2nc(NS(=O)(=O)c3ccccc3)ncc2-c2nc3ccccc3s2)cc1 [9c, N-(5-(Benzo[d]thiazol-2-yl)-4-((2-(p-tolyl)-2-oxoethyl)amino)pyrimidin-2-yl)benzenesulfonamide], the “mean % of reduction, herpes simplex virus” value (HSV-1) was 30 ± 1.0%, the “mean % of reduction, hepatitis A virus HM 175” value (HAV HM175) was 40 ± 1.2% and the “mean % of reduction, HCVcc genotype 4” value [1] was 10 ± 0.6%. The “mean % of reduction, adenovirus type 7” value (HAdV7) was 10 ± 0.2%.
In the case of Cc1ccc(-c2nc(N)nc(N)c2-c2nc3ccccc3s2)cc1 [13b, 5-(Benzo[d]thiazol-2-yl)-6-p-tolylpyrimidine-2,4-diamine], the “mean % of reduction, herpes simplex virus” value (HSV-1) is reported as 10 ± 0.1%, the “mean % of reduction, hepatitis A virus HM 175” value (HAV HM175) is reported as 10 ± 0.1% and the “mean % of reduction, coxsackievirus B4” value (CBV4) is reported as 10 ± 0.1%. For the same molecule, the “mean % of reduction, HCVcc genotype 4” value [1] was 10 ± 0.2% and the “mean % of reduction, adenovirus type 7” value (HAdV7) was 10 ± 0.1%.
With COc1ccc(-c2nc(N)nc(N)c2-c2nc3ccccc3s2)cc1 [13c, 5-(Benzo[d]thiazol-2-yl)-6-(4-methoxyphenyl)pyrimidine-2,4-diamine] the “mean % of reduction, herpes simplex virus” value (HSV-1) was 10 ± 0.3%, the “mean % of reduction, hepatitis A virus HM 175” value (HAV HM175) was 10 ± 0.1% and the “mean % of reduction, coxsackievirus B4” value (CBV4) was 10 ± 0.2%. For the same molecule, the “mean % of reduction, HCVcc genotype 4” value [1] was 10 ± 0.1% and the “mean % of reduction, adenovirus type 7” value (HAdV7) was 10 ± 0.2%.
For Nc1nc(NS(=O)(=O)c2ccccc2)nc(-c2ccccc2)c1-c1nc2ccccc2s1 [14a, N-(4-Amino-5-(benzo[d]thiazol-2-yl)-6-phenylpyrimidin-2-yl)benzenesulfonamide], the “mean % of reduction, herpes simplex virus” value (HSV-1) was 10 ± 0.2%, the “mean % of reduction, hepatitis A virus HM 175” value (HAV HM175) was 10 ± 0.1% and the “mean % of reduction, coxsackievirus B4” value (CBV4) was 10 ± 0.1%. The “mean % of reduction, HCVcc genotype 4” value [1] was 10 ± 0.1% and the “mean % of reduction, adenovirus type 7” value (HAdV7) was 10 ± 0.2%.
For Nc1nc(NS(=O)(=O)c2ccccc2)nc(-c2ccc(F)cc2)c1-c1nc2ccccc2s1 [14b, N-(4-Amino-5-(benzo[d]thiazol-2-yl)-6-(4-fluorophenyl)pyrimidin-2-yl)benzenesulfonamide], the IC50 (HSV-1) was 66 µg/mL (≈ 138 µM), the “mean % of reduction, herpes simplex virus” value (HSV-1) was 70 ± 1.3% and the CC50 (Vero cell line) was 250 µg/mL (≈ 524 µM). The “mean % of reduction, HCVcc genotype 4” value [1] was 10 ± 0.6%, the CC50 (FRHK-4 cell line) was 220 µg/mL (≈ 461 µM) and the “mean % of reduction, adenovirus type 7” value (HAdV7) was 30 ± 0.5%.
Nc1nc(NS(=O)(=O)c2ccccc2)nc(-c2ccc(Cl)cc2)c1-c1nc2ccccc2s1 [14c, N-(4-Amino-5-(benzo[d]thiazol-2-yl)-6-(4-chlorophenyl)pyrimidin-2-yl)benzenesulfonamide] was tested, and the “mean % of reduction, herpes simplex virus” value (HSV-1) was 30 ± 0.8%, the “mean % of reduction, HCVcc genotype 4” value [1] was 30 ± 0.7% and the CC50 (FRHK-4 cell line) was 230 µg/mL (≈ 466 µM). For the same molecule, the “mean % of reduction, adenovirus type 7” value (HAdV7) was 30 ± 0.6%.
For Cc1ccc(-c2nc(NS(=O)(=O)c3ccccc3)nc(N)c2-c2nc3ccccc3s2)cc1 [14d, N-(4-Amino-5-(benzo[d]thiazol-2-yl)-6-p-tolylpyrimidin-2-yl)benzenesulfonamide], the “mean % of reduction, herpes simplex virus” value (HSV-1) was 10 ± 0.1%, the “mean % of reduction, hepatitis A virus HM 175” value (HAV HM175) was 20 ± 0.2% and the “mean % of reduction, coxsackievirus B4” value (CBV4) was 30 ± 0.2%. The “mean % of reduction, HCVcc genotype 4” value [1] was 10 ± 0.1% and the “mean % of reduction, adenovirus type 7” value (HAdV7) was 10 ± 0.1%.
COc1ccc(-c2nc(NS(=O)(=O)c3ccccc3)nc(N)c2-c2nc3ccccc3s2)cc1 [14e, N-(4-Amino-5-(benzo[d]thiazol-2-yl)-6-(4-methoxyphenyl)pyrimidin-2-yl)benzenesulfonamide] was tested, and the “mean % of reduction, herpes simplex virus” value (HSV-1) was 16.7 ± 0.1%, the “mean % of reduction, hepatitis A virus HM 175” value (HAV HM175) was 13.3 ± 0.2% and the “mean % of reduction, coxsackievirus B4” value (CBV4) was 20 ± 0.2%. For the same molecule, the “mean % of reduction, HCVcc genotype 4” value [1] was 10 ± 0.3% and the “mean % of reduction, adenovirus type 7” value (HAdV7) was 10 ± 0.1%.
In the case of Cc1ccc(S(=O)(=O)Nc2nc(N)c(-c3nc4ccccc4s3)c(-c3ccccc3)n2)cc1 [14f, N-(4-Amino-5-(benzo[d]thiazol-2-yl)-6-phenylpyrimidin-2-yl)-4-methylbenzenesulfonamide], the “mean % of reduction, herpes simplex virus” value (HSV-1) is reported as 10 ± 0.1%, the “mean % of reduction, hepatitis A virus HM 175” value (HAV HM175) is reported as 10 ± 0.1% and the “mean % of reduction, coxsackievirus B4” value (CBV4) is reported as 10 ± 0.2%. For the same molecule, the “mean % of reduction, HCVcc genotype 4” value [1] was 10 ± 0.1% and the “mean % of reduction, adenovirus type 7” value (HAdV7) was 10 ± 0.2%.
With Cc1ccc(S(=O)(=O)Nc2nc(N)c(-c3nc4ccccc4s3)c(-c3ccc(F)cc3)n2)cc1 [14g, N-(4-Amino-5-(benzo[d]thiazol-2-yl)-6-(4-fluorophenyl)pyrimidin-2-yl)-4-methylbenzenesulfonamide] the IC50 (HSV-1) was 50 µg/mL (≈ 102 µM), the “mean % of reduction, herpes simplex virus” value (HSV-1) was 80% and 80 ± 2.4% and the IC50 (HAV HM175) was 81 µg/mL (≈ 165 µM). The CC50 (Vero cell line) was 240 µg/mL (≈ 488 µM), the “mean % of reduction, HCVcc genotype 4” value [1] was 20 ± 0.7% and the CC50 (FRHK-4 cell line) was 230 µg/mL (≈ 468 µM). The “mean % of reduction, adenovirus type 7” value (HAdV7) was 40 ± 0.8%.
In the case of Cc1ccc(S(=O)(=O)Nc2nc(N)c(-c3nc4ccccc4s3)c(-c3ccc(Cl)cc3)n2)cc1 [14h, N-(4-Amino-5-(benzo[d]thiazol-2-yl)-6-(4-chlorophenyl)pyrimidin-2-yl)-4-methylbenzenesulfonamide], the IC50 (HSV-1) is reported as 71 µg/mL (≈ 140 µM), the “mean % of reduction, herpes simplex virus” value (HSV-1) is reported as 70% and 70 ± 2.0% and the IC50 (HAV HM175) is reported as 74 µg/mL (≈ 146 µM). For the same molecule, the CC50 (Vero cell line) was 230 µg/mL (≈ 453 µM), the “mean % of reduction, HCVcc genotype 4” value [1] was 20 ± 0.5% and the CC50 (FRHK-4 cell line) was 200 µg/mL (≈ 394 µM). The “mean % of reduction, adenovirus type 7” value (HAdV7) was 40 ± 0.7%.
In the case of Cc1ccc(-c2nc(NS(=O)(=O)c3ccc(C)cc3)nc(N)c2-c2nc3ccccc3s2)cc1 [14i, N-(4-Amino-5-(benzo[d]thiazol-2-yl)-6-p-tolylpyrimidin-2-yl)-4-methylbenzenesulfonamide], the “mean % of reduction, herpes simplex virus” value (HSV-1) is reported as 10 ± 0.1%, the “mean % of reduction, hepatitis A virus HM 175” value (HAV HM175) is reported as 10 ± 0.2% and the “mean % of reduction, coxsackievirus B4” value (CBV4) is reported as 10 ± 0.1%. The “mean % of reduction, HCVcc genotype 4” value [1] was 10 ± 0.2% and the “mean % of reduction, adenovirus type 7” value (HAdV7) was 10 ± 0.1%.
COc1ccc(-c2nc(NS(=O)(=O)c3ccc(C)cc3)nc(N)c2-c2nc3ccccc3s2)cc1 [14j, N-(4-Amino-5-(benzo[d]thiazol-2-yl)-6-(4-methoxyphenyl)pyrimidin-2-yl)-4-methylbenzenesulfonamide] was tested, and the “mean % of reduction, herpes simplex virus” value (HSV-1) was 10 ± 0.1%, the “mean % of reduction, hepatitis A virus HM 175” value (HAV HM175) was 10 ± 0.1% and the “mean % of reduction, coxsackievirus B4” value (CBV4) was 10 ± 0.1%. The “mean % of reduction, HCVcc genotype 4” value [1] was 10 ± 0.3% and the “mean % of reduction, adenovirus type 7” value (HAdV7) was 10 ± 0.1%.
With CSc1nc(NS(=O)(=O)c2ccccc2)nc(N)c1-c1nc2ccccc2s1 [17a, N-(4-Amino-5-(benzo[d]thiazol-2-yl)-6-(methylthio)pyrimidin-2-yl)benzenesulfonamide] the “mean % of reduction, herpes simplex virus” value (HSV-1) was 10 ± 0.3%, the “mean % of reduction, hepatitis A virus HM 175” value (HAV HM175) was 10 ± 0.2% and the “mean % of reduction, coxsackievirus B4” value (CBV4) was 10 ± 0.1%. For the same molecule, the “mean % of reduction, HCVcc genotype 4” value [1] was 10 ± 0.1% and the “mean % of reduction, adenovirus type 7” value (HAdV7) was 10 ± 0.2%.
For CSc1nc(NS(=O)(=O)c2ccc(C)cc2)nc(N)c1-c1nc2ccccc2s1 [17b, N-(4-Amino-5-(benzo[d]thiazol-2-yl)-6-(methylthio)pyrimidin-2-yl)-4-methylbenzenesulfonamide], the “mean % of reduction, herpes simplex virus” value (HSV-1) was 10 ± 0.2%, the “mean % of reduction, hepatitis A virus HM 175” value (HAV HM175) was 10 ± 0.1% and the “mean % of reduction, coxsackievirus B4” value (CBV4) was 20 ± 0.2%. For the same molecule, the “mean % of reduction, HCVcc genotype 4” value [1] was 10 ± 0.1% and the “mean % of reduction, adenovirus type 7” value (HAdV7) was 10 ± 0.1%.
Nc1nc2c(ncn2COCCO)c(=O)[nH]1 [acyclovir, Acyclovir, reference compound] gave a CC50 (Vero cell line) of 28 µg/mL (≈ 124 µM).
With CC(=O)CNc1nc(NS(=O)(=O)c2ccccc2)ncc1-c1nc2ccccc2s1 [compound 7, N-(5-(Benzo[d]thiazol-2-yl)-4-((2-oxopropyl)amino)pyrimidin-2-yl)benzenesulfonamide] the “mean % of reduction, herpes simplex virus” value (HSV-1) was 10 ± 0.5%, the “mean % of reduction, hepatitis A virus HM 175” value (HAV HM175) was 10 ± 0.2% and the “mean % of reduction, coxsackievirus B4” value (CBV4) was 13.3 ± 0.4%. For the same molecule, the “mean % of reduction, HCVcc genotype 4” value [1] was 10 ± 0.3% and the “mean % of reduction, adenovirus type 7” value (HAdV7) was 10 ± 0.2%.
